Results: patent US7408065B2, “P2X7 receptor antagonists and their use” (AstraZeneca AB, priority 2003, dated 2008)
Counter-ions that a name gives are not always drawn.

Cc1ccc2nc(N3CC[C@H](N)C3)ccc2c1NC(=O)CC1CCCCC1 [Example 38, N-[2-[(3S)-3-Amino-1-pyrrolidinyl]-6-methyl-5-quinolinyl]-cyclohexaneacetamide]
melting point: 223 to 224 °C

O=C(CC1CCCCC1)Nc1c(Cl)ccc2nc(NCCNCCO)ccc12 (as salt: hydrochloride) [Example 17, N-[6-Chloro-2-[[2-[(2-hydroxyethyl)amino]ethyl]amino]-5-quinolinyl]-cyclohexaneacetamide, Dihydrochloride]
melting point: 238 to 240 °C

N#CC1CCN(c2ccc3c(NC(=O)CC4CCCCC4)c(Cl)ccc3n2)CC1 [Example 113, N-[6-Chloro-2-(4-cyan-1-piperidinyl)-5-quinolinyl]-cyclhexaneacetamide]
melting point: 235 to 237 °C

O=C(CC1CCCCC1)Nc1c(Cl)ccc2nc(N3CCC[C@H](NCCO)C3)ccc12 [Example 61, N-[6-Chloro-2-[(3S)-3-[(2-hydroxyethyl)amino]-1-piperidinyl]-5-quinolinyl]-cyclohexaneacetamide]
melting point: 182 to 183 °C

O=C(CC1CCCCC1)Nc1c(Cl)ccc2nc(N3C[C@@H]4C[C@H]3CN4)ccc12 (as salt: acetate) [Example 13, N-[6-Chloro-2-[(1S,4S)-2,5-diazabicyclo[2.2.1]hept-2-yl]-5-quinolinyl]-cyclohexaneacetamide, Acetate]
melting point: 120 °C (dec.)

N[C@@H]1CCN(c2ccc3c(NC(=O)CC4CCCCC4)c(Cl)ccc3n2)C1 [Example 30, N-[2-[(3R)-3-Amino-1-pyrrolidinyl]-6-chloro-5-quinolinyl]-cyclohexaneacetamide]
melting point: 201 to 206 °C

O=C(CC1CCCCC1)Nc1c(Cl)ccc2nc(N3CC[C@H](NCCc4nnn[nH]4)C3)ccc12 [Example 101, N-[6-Chloro-2-[(3S)-3-[[2-(2H-tetrazol-5-yl)ethyl]amino]-1-pyrrolidinyl]-5-quinolinyl]-cyclohexaneacetamide]
melting point: 220 to 221 °C

O=C(NCC1CCCCC1)c1c(Cl)ccc2nc(N3CC(NCCO)C3)ccc12 [Example 55, 6-Chloro-N-(cyclohexylmethyl)-2-[3-[(2-hydroxyethyl)amino]-1-azetidinyl]-5-quinolinecarboxamide]
melting point: 150 to 151 °C

O=C(O)CCNc1ccc2c(NC(=O)CC3CCCCC3)c(Cl)ccc2n1 [Example 41, N-[6-Chloro-5-[(cyclohexylacetyl)amino]-2-quinolinyl]-β-alanine]
melting point: 222 to 224 °C (dec.)

O=C(CC1CCCCC1)Nc1c(Cl)ccc2nc(N3CC[C@H](OCCc4noc(=O)[nH]4)C3)ccc12 [Example 108, N-[6-Chloro-2-[(3S)-3-[2-(4,5-dihydro-5-oxo-1,2,4-oxadiazol-3-yl)ethoxy]-1-pyrrolidinyl]-5-quinolinyl]-cyclohexaneacetamide]
melting point: 185 to 190 °C

O=C(CC1CCCCC1)Nc1c(Cl)ccc2nc(N3CCC(c4nsc(=O)[nH]4)CC3)ccc12 [Example 103, N-[6-Chloro-2-[4-(4,5-dihydro-5-oxo-1,2,4-thiadiazol-3-yl)-1-piperidinyl]-5-quinolinyl]-cyclohexaneacetamide]
melting point: 275 °C

O=C(CCC1CCCC1)Nc1cccc2ncccc12 [Example 21, N-5-Quinolinyl-cyclopentanepropanamide]
melting point: 135 to 138 °C

CC1(CC(=O)Nc2cccc3ncccc23)CCCCC1 [Example 19, 1-Methyl-N-5-quinolinyl-cyclohexaneacetamide]
melting point: 133 to 135 °C

Cc1ccc2nc(N3CC[C@H](N)C3)ccc2c1C(=O)NCC1CCCCC1 (as salt: acetate) [Example 58, 2-[(3S)-3-Amino-1-pyrrolidinyl]-N-(cyclohexylmethyl)-6-methyl-5-quinolinecarboxamide, Acetate]
melting point: 154 to 155 °C

O=C(NCC1CCCCC1)c1c(Cl)ccc2nc(N3CCC[C@@H]3C(=O)O)ccc12 [Example 71, 1-[6-Chloro-5-[[(cyclohexylmethyl)amino]carbonyl]-2-quinolinyl]-D-proline]
melting point: 157 to 160 °C

CCNCCCc1ccc2c(NC(=O)CC3CCCCC3)c(Cl)ccc2n1 (as salt: hydrochloride)
melting point: 152 to 155 °C

O=C(O)CCCNc1ccc2c(NC(=O)CC3CCCCC3)c(Cl)ccc2n1 [Example 7, 4-[[6-Chlor-5-[(cyclohexylacetyl)amino]-2-quinolinyl]amino]-butanoic Acid]
melting point: 248 to 250 °C

O=C(O)CNc1ccc2c(NC(=O)CC3CCCCC3)c(Cl)ccc2n1 [Example 40, N-[6-Chloro-5-[(cyclohexylacetyl)amino]-2-quinolinyl]-glycine]
melting point: 222 to 225 °C (dec.)

O=C(CC1CCCCC1)Nc1c(Cl)ccc2nc(N3CC[C@H](OCCc4nnn[nH]4)C3)ccc12 [Example 107, N-[6-Chloro-2-[(3S)-3-[2-(1H-tetrazol-5-yl)ethoxy]-1-pyrrolidinyl]-5-quinolinyl]-cyclohexaneacetamide]
melting point: 177 to 181 °C

O=C(NCCC1CCCCC1)c1c(Cl)ccc2nc(N3CCC(c4nnn[nH]4)CC3)ccc12 [Example 111, 6-Chloro-N-(2-cyclohexylethyl)-2-[4-(1H-tetrazol-5-yl)-1-piperidinyl]-5-quinolinecarboxamide]
melting point: 252 to 255 °C

NCCCc1ccc2c(NC(=O)CC3CCCCC3)c(Cl)ccc2n1 [Example 23, N-[2-(3-Aminopropyl)-6-chloro-5-quinolinyl]-cyclohexaneacetamide]
melting point: 121 to 130 °C

N[C@H]1CCN(c2ccc3c(NC(=O)CCC4CCCC4)c(Cl)ccc3n2)C1 [Example 62, N-[2-[(3S)-3-Amin-1-pyrrolidinyl]-6-chloro-5-quinlinyl]-cyclopentanepropanamide]
melting point: 192 to 194 °C

Cc1ccc2c(C(=O)NCC3CCCCC3)c(Cl)ccc2n1 (as salt: hydrochloride)
melting point: 210 to 213 °C

O=C(NCCC1CCCCC1)c1c(Cl)ccc2nc(N3CCC(C(=O)O)CC3)ccc12 [Example 76, 1-[6-Chloro-5-[[(2-cyclohexylethyl)amino]carbonyl]-2-quinolinyl]-4-piperidinecarboxylic Acid]
melting point: 253 to 256 °C

O=C(O)CC1CCN(c2ccc3c(NC(=O)CC4CCCCC4)c(Cl)ccc3n2)CC1 [Example 68, 1-[6-Chloro-5-[(cyclohexylacetyl)amino]-2-quinolinyl]-4-piperidineacetic Acid]
melting point: 242 to 244 °C

CS(=O)(=O)NC(=O)N[C@H]1CCN(c2ccc3c(NC(=O)CC4CCCCC4)c(Cl)ccc3n2)C1 [Example 89, N-[6-Chloro-2-[(3S)-3-[[[(methylsulfonyl)amino]carbonyl]amino]-1-pyrrolidinyl]-5-quinolinyl]-cyclohexaneacetamide]
melting point: 303 to 307 °C

O=C(NCC1CCCCC1)c1c(Cl)ccc2nc(N3CCNCC3)ccc12 (as salt: hydrochloride)
melting point: 305 to 306 °C

O=C(CC1CCCCC1)Nc1c(Cl)ccc2nc(N3CC[C@@H](NCCO)C3)ccc12 [Example 34, N-[6-Chloro-2-[(3R)-3-[(2-hydroxyethyl)amino]-1-pyrrolidinyl]-5-quinolinyl]-cyclohexaneacetamide]
melting point: 197 to 199 °C

O=C(CC1CCCCC1)Nc1c(Cl)ccc2nc(N3CCC(c4nnn[nH]4)CC3)ccc12 [Example 109, N-[6-Chloro-2-[4-(1H-tetrazol-5-yl)-1-piperidinyl]-5-quinolinyl]cyclohexane-acetamide]
melting point: 295 to 300 °C

O=C(CC1CCCCC1)Nc1c(Cl)ccc2nc(N3CC[C@H](O)C3)ccc12 [Example 29, N-[6-Chloro-2-[(3S)-3-hydroxy-1-pyrrolidinyl]-5-quinolinyl]-cyclohexaneacetamide]
melting point: 219 to 221 °C

O=C(O)CC1CCN(c2ccc3c(C(=O)NCC4CCCCC4)c(Cl)ccc3n2)CC1 (as salt: trifluoroacetate)
melting point: 79 to 83 °C

N[C@H]1CCN(Cc2ccc3c(NC(=O)CC4CCCCC4)c(Cl)ccc3n2)C1 [Example 59, N-[2-[[(3S)-3-Amino-1-pyrrolidinyl]methyl]-6-chloro-5-quinolinyl]-cyclohexaneacetamide]
melting point: 160 °C (dec.)

O=C(CC1CCCCC1)Nc1c(Cl)ccc2nc(N3CCC[C@@H]3C(=O)O)ccc12 (as salt: trifluoroacetate) [Example 65, 1-[6-Chloro-5-[(cyclohexylacetyl)amino]-2-quinolinyl]-D-proline, Trifluoroacetate]
melting point: 170 to 173 °C

O=C(CC1CCCCC1)Nc1c(Cl)ccc2nc(N[C@@H]3CCNC3)ccc12 (as salt: hydrochloride) [Example 14, N-[6-Chloro-2-[(3R)-3-pyrrlidinylamino]-5-quinolinyl]-cyclohexaneacetamide, Dihydrochloride]
melting point: 193 to 198 °C

CNCCCN(C)c1ccc2c(NC(=O)CC3CCCCC3)c(Cl)ccc2n1 (as salt: hydrochloride) [Example 3, N-[6-Chloro-2-[methyl[3-(methylamino)propyl]amino]-5-quinolinyl]-cyclohexaneacetamide, Dihydrochloride]
melting point: 231 to 233 °C

O=C(CC1CCCCC1)Nc1c(Cl)ccc2nc(CC3CCNCC3)ccc12 (as salt: hydrochloride)
melting point: 170 to 175 °C

O=C(O)CN1CCN(c2ccc3c(NC(=O)CC4CCCCC4)c(Cl)ccc3n2)CC1 (as salt: salt)
melting point: 320 to 326 °C

N[C@H]1CCN(c2ccc3c(NC(=O)CC4CCCCC4)c(Cl)ccc3n2)C1 [Example 31, N-[2-[(3S)-3-Amino-1-pyrrolidinyl]-6-chloro-5-quinolinyl]-cyclohexaneacetamide]
melting point: 219 to 226 °C

CC(C)(C)OC(=O)N(CCO)[C@H]1CCN(c2ccc3c(NC(=O)CC4CCCCC4)c(Cl)ccc3n2)C1 [Example 56, [1-[6-Chlor-5-[(cyclohexylacetyl)amino]-2-quinolinyl]-3-pyrrolidinyl](2-hydroxyethyl)-carbamic Acid 1,1-dimethylethyl Ester]
melting point: 115 to 120 °C

O=C(CCC1CCCC1)Nc1c(Cl)ccc2nc(N3CC[C@H](NCCO)C3)ccc12 [Example 63, N-[6-Chloro-2-[(3S)-3-[(2-hydroxyethyl)amino]-1-pyrrolidinyl]-5-quinolinyl]-cyclopentanepropanamide]
melting point: 186 to 188 °C
